Key:
Assay in all cases: relative viability (nuclei count vs DMSO), 5 days (fraction); higher = more cells survive
NCI-H2170 = tested on: NCI-H2170
In short: (§1)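 After 5 days of treatment, lung cancer cells in 1536-well plates were fixed and stained in a single step (final 0.05% Triton X-100, 1% formaldehyde, 1 ug/ml Hoechst) and their nuclei counted on 4× images. Treatment had been applied by pin tool the day after seeding as one drug alone or as a fixed anchor-drug dose with five library-drug doses (not always all listed) in √10 steps. Relative viability is the nuclei count of treated wells divided by that of vehicle wells, and values are medians of duplicate plates.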

NCI-H3122 = tested on: NCI-H3122
In short: as §1

NCI-H1993 = tested on: NCI-H1993
In short: as §1

HARA = tested on: HARA
In short: as §1

NCI-H1944 = tested on: NCI-H1944
In short: as §1

PC-3 [JPC-3] = tested on: PC-3 [JPC-3]
In short: as §1

EMC-BAC-2 = tested on: EMC-BAC-2
In short: as §1

NCI-H2228 = tested on: NCI-H2228
In short: as §1

NCI-H322M = tested on: NCI-H322M
In short: as §1

SK-MES-1 = tested on: SK-MES-1
In short: as §1

NCI-H596 = tested on: NCI-H596
In short: as §1

HOP-62 = tested on: HOP-62
In short: as §1

A-427 = tested on: A-427
In short: as §1

LK-2 = tested on: LK-2
In short: as §1

SW 1573 = tested on: SW 1573
In short: as §1

LXF-289 = tested on: LXF-289
In short: as §1

ABC-1 = tested on: ABC-1
In short: as §1

NCI-H2009 = tested on: NCI-H2009
In short: as §1

NCI-H727 = tested on: NCI-H727
In short: as §1

SW 900 = tested on: SW 900
In short: as §1

Q: COc1cc2nccc(Oc3ccc(NC(=O)Nc4cc(C)on4)c(Cl)c3)c2cc1OC [Tivozanib] + COc1cc2c(Oc3ccc(NC(=O)C4(C(=O)Nc5ccc(F)cc5)CC4)cc3F)ccnc2cc1OCCCN1CCOCC1 [Foretinib] (partner 0.25 µM) was tested. Which relative viability (NCI-H2170; first compound 0.005 µM) did it give?
A: 0.943

Q: What about the relative viability (NCI-H2170; first compound 0.01581 µM) of the same compound?
A: 0.982

Q: And the relative viability (NCI-H2170; first compound 0.05 µM)?
A: 0.975

Q: What about the relative viability (NCI-H2170; first compound 0.1581 µM) of the same compound?
A: 1.02

Q: And the relative viability (NCI-H2170; first compound 0.5 µM)?
A: 1.06

Q: What about the relative viability (NCI-H3122; first compound 0.005 µM) of the same compound?
A: 0.913

Q: What about the relative viability (NCI-H3122; first compound 0.01581 µM) of the same compound?
A: 0.962

Q: What about the relative viability (NCI-H3122; first compound 0.05 µM) of the same compound?
A: 0.92

Q: And the relative viability (NCI-H3122; first compound 0.1581 µM)?
A: 1.05

Q: What about the relative viability (NCI-H3122; first compound 0.5 µM) of the same compound?
A: 0.953

Q: What about the relative viability (NCI-H1993; first compound 0.005 µM) of the same compound?
A: 0.632

Q: And the relative viability (NCI-H1993; first compound 0.01581 µM)?
A: 0.712

Q: And the relative viability (NCI-H1993; first compound 0.05 µM)?
A: 0.757

Q: What about the relative viability (NCI-H1993; first compound 0.1581 µM) of the same compound?
A: 0.733

Q: And the relative viability (NCI-H1993; first compound 0.5 µM)?
A: 0.722

Q: And the relative viability (HARA; first compound 0.005 µM)?
A: 0.859

Q: And the relative viability (HARA; first compound 0.01581 µM)?
A: 0.855

Q: What about the relative viability (HARA; first compound 0.05 µM) of the same compound?
A: 0.928

Q: And the relative viability (HARA; first compound 0.1581 µM)?
A: 0.952

Q: And the relative viability (HARA; first compound 0.5 µM)?
A: 0.905

Q: What about the relative viability (NCI-H1944; first compound 0.005 µM) of the same compound?
A: 0.918

Q: And the relative viability (NCI-H1944; first compound 0.01581 µM)?
A: 0.854

Q: What about the relative viability (NCI-H1944; first compound 0.05 µM) of the same compound?
A: 0.926

Q: What about the relative viability (NCI-H1944; first compound 0.1581 µM) of the same compound?
A: 0.924

Q: And the relative viability (NCI-H1944; first compound 0.5 µM)?
A: 0.931

Q: And the relative viability (PC-3 [JPC-3]; first compound 0.005 µM)?
A: 1.01

Q: What about the relative viability (PC-3 [JPC-3]; first compound 0.01581 µM) of the same compound?
A: 1.07

Q: And the relative viability (PC-3 [JPC-3]; first compound 0.05 µM)?
A: 1.07

Q: What about the relative viability (PC-3 [JPC-3]; first compound 0.1581 µM) of the same compound?
A: 1.06

Q: What about the relative viability (PC-3 [JPC-3]; first compound 0.5 µM) of the same compound?
A: 1.01

Q: And the relative viability (EMC-BAC-2; first compound 0.005 µM)?
A: 1.03

Q: What about the relative viability (EMC-BAC-2; first compound 0.01581 µM) of the same compound?
A: 0.952

Q: And the relative viability (EMC-BAC-2; first compound 0.05 µM)?
A: 1.03

Q: And the relative viability (EMC-BAC-2; first compound 0.1581 µM)?
A: 0.952

Q: And the relative viability (EMC-BAC-2; first compound 0.5 µM)?
A: 1.07

Q: What about the relative viability (NCI-H2228; first compound 0.005 µM) of the same compound?
A: 0.887

Q: And the relative viability (NCI-H2228; first compound 0.01581 µM)?
A: 0.985

Q: And the relative viability (NCI-H2228; first compound 0.05 µM)?
A: 1.13

Q: And the relative viability (NCI-H2228; first compound 0.1581 µM)?
A: 0.82

Q: And the relative viability (NCI-H2228; first compound 0.5 µM)?
A: 0.928

Q: What about the relative viability (NCI-H322M; first compound 0.005 µM) of the same compound?
A: 0.843

Q: What about the relative viability (NCI-H322M; first compound 0.01581 µM) of the same compound?
A: 1.01

Q: What about the relative viability (NCI-H322M; first compound 0.05 µM) of the same compound?
A: 0.989

Q: What about the relative viability (NCI-H322M; first compound 0.1581 µM) of the same compound?
A: 0.926

Q: What about the relative viability (NCI-H322M; first compound 0.5 µM) of the same compound?
A: 0.969

Q: What about the relative viability (SK-MES-1; first compound 0.005 µM) of the same compound?
A: 0.862

Q: And the relative viability (SK-MES-1; first compound 0.01581 µM)?
A: 0.974

Q: What about the relative viability (SK-MES-1; first compound 0.05 µM) of the same compound?
A: 1.01

Q: What about the relative viability (SK-MES-1; first compound 0.1581 µM) of the same compound?
A: 0.981

Q: And the relative viability (SK-MES-1; first compound 0.5 µM)?
A: 0.924

Q: And the relative viability (NCI-H596; first compound 0.005 µM)?
A: 0.697

Q: And the relative viability (NCI-H596; first compound 0.01581 µM)?
A: 0.915

Q: And the relative viability (NCI-H596; first compound 0.05 µM)?
A: 0.846

Q: And the relative viability (NCI-H596; first compound 0.5 µM)?
A: 0.879

Q: What about the relative viability (HOP-62; first compound 0.005 µM) of the same compound?
A: 1.18

Q: What about the relative viability (HOP-62; first compound 0.01581 µM) of the same compound?
A: 1.05

Q: And the relative viability (HOP-62; first compound 0.05 µM)?
A: 1.12

Q: And the relative viability (HOP-62; first compound 0.1581 µM)?
A: 1.11

Q: What about the relative viability (HOP-62; first compound 0.5 µM) of the same compound?
A: 1.06

Q: And the relative viability (A-427; first compound 0.005 µM)?
A: 1.03

Q: And the relative viability (A-427; first compound 0.01581 µM)?
A: 1.11

Q: What about the relative viability (A-427; first compound 0.05 µM) of the same compound?
A: 1.05

Q: And the relative viability (A-427; first compound 0.1581 µM)?
A: 1.06

Q: And the relative viability (A-427; first compound 0.5 µM)?
A: 1.02

Q: And the relative viability (LK-2; first compound 0.005 µM)?
A: 1.36

Q: And the relative viability (LK-2; first compound 0.01581 µM)?
A: 1.09

Q: And the relative viability (LK-2; first compound 0.05 µM)?
A: 1.18

Q: What about the relative viability (LK-2; first compound 0.1581 µM) of the same compound?
A: 1.1

Q: What about the relative viability (LK-2; first compound 0.5 µM) of the same compound?
A: 1.02

Q: And the relative viability (SW 1573; first compound 0.005 µM)?
A: 0.784

Q: What about the relative viability (SW 1573; first compound 0.01581 µM) of the same compound?
A: 0.828

Q: And the relative viability (SW 1573; first compound 0.05 µM)?
A: 0.827

Q: And the relative viability (SW 1573; first compound 0.1581 µM)?
A: 0.886

Q: And the relative viability (SW 1573; first compound 0.5 µM)?
A: 0.903

Q: What about the relative viability (LXF-289; first compound 0.005 µM) of the same compound?
A: 0.945

Q: And the relative viability (LXF-289; first compound 0.01581 µM)?
A: 0.933

Q: What about the relative viability (LXF-289; first compound 0.05 µM) of the same compound?
A: 0.999

Q: What about the relative viability (LXF-289; first compound 0.1581 µM) of the same compound?
A: 0.986

Q: What about the relative viability (LXF-289; first compound 0.5 µM) of the same compound?
A: 0.963

Q: And the relative viability (ABC-1; first compound 0.005 µM)?
A: 1.01

Q: And the relative viability (ABC-1; first compound 0.01581 µM)?
A: 1.21

Q: What about the relative viability (ABC-1; first compound 0.05 µM) of the same compound?
A: 1

Q: And the relative viability (ABC-1; first compound 0.1581 µM)?
A: 1.06

Q: What about the relative viability (ABC-1; first compound 0.5 µM) of the same compound?
A: 1.02

Q: What about the relative viability (NCI-H2009; first compound 0.005 µM) of the same compound?
A: 1.2

Q: What about the relative viability (NCI-H2009; first compound 0.01581 µM) of the same compound?
A: 1.16

Q: What about the relative viability (NCI-H2009; first compound 0.05 µM) of the same compound?
A: 1.19

Q: What about the relative viability (NCI-H2009; first compound 0.1581 µM) of the same compound?
A: 1.19

Q: What about the relative viability (NCI-H2009; first compound 0.5 µM) of the same compound?
A: 1.13

Q: What about the relative viability (NCI-H727; first compound 0.005 µM) of the same compound?
A: 0.963

Q: What about the relative viability (NCI-H727; first compound 0.01581 µM) of the same compound?
A: 1.04

Q: And the relative viability (NCI-H727; first compound 0.05 µM)?
A: 1.32

Q: And the relative viability (NCI-H727; first compound 0.1581 µM)?
A: 0.853

Q: What about the relative viability (NCI-H727; first compound 0.5 µM) of the same compound?
A: 0.89

Q: What about the relative viability (SW 900; first compound 0.005 µM) of the same compound?
A: 0.806

Q: What about the relative viability (SW 900; first compound 0.01581 µM) of the same compound?
A: 0.884

Q: What about the relative viability (SW 900; first compound 0.05 µM) of the same compound?
A: 0.733

Q: What about the relative viability (SW 900; first compound 0.1581 µM) of the same compound?
A: 0.697

Q: What about the relative viability (SW 900; first compound 0.5 µM) of the same compound?
A: 0.924
